Converted amounts (≈) assume the structure as drawn. “Also recorded” adds a separate entry of the source.
Columns and labels:
[1] = test system: P. aeruginosa PA14; assay: Mouse burn and infection (BI) model, survival; type: in vivo, mice; conditions: for average survival after 5 days: IV tail vein 100 μl of 10 mM, four days prior to burn/infection, n=8-10, control 10% (FIG. 9); for final mice survival rate at 7 days post burn and infection: single IV injection at 6 hrs (100 μl 20 mM), control 10% (FIG. 24)
Description: Burn wound infection in mice can be established by subcutaneous or topical administration of the bacteria to the sites of the burn. […] Six-week old CD-1 male mice were used.
To induce infection, the mice were placed under general anesthesia via intraperitonial injection of 40 mg/kg Pentobarbital, the ventral surface was shaved, and a central skin fold elevated was simultaneously compressed from both sides for 5 seconds using two 2×2 cm metal blocks preheated to 95-100° C., to produce a non-lethal 5-8% full thickness burn with negligible focal necrosis of the underlying muscle or damage to underlying visceral organs. IP saline was administered for fluid resuscitation for ≧5% total body surface burns: avoiding vital structures, saline was injected into the left lower quadrant of the abdominal area of the anesthetized animal post-burn. This burn procedure was followed by mid-eschar inoculation of 100 μL of bacterial suspension containing ˜5×10^5 CFU. The animals were returned to their cages and provided mouse chow and water ad libitum. Animals typically recover from the anesthesia within 20 minutes post-administration. Criteria used to evaluate anesthesia recovery are state of alertness, mobility, and reaction to surrounding stimuli. Mice were monitored twice a day for symptoms and deaths, with increased monitoring every 6-8 hours during the period of greatest potential for infection and clinical disease.
The mouse full-thickness skin thermal injury infection model was used to test if 2AA restricts P, aeruginosa virulence. This model is predictable and reproducible; clinically relevant; and can lead to MODS and mortality. Briefly, a ˜15% total burn surface area (TBSA) thermal scalding injury is produced on the abdominal skin, leaving the underlying muscle intact, and the inoculum is delivered into the scald eschar. […]

[2] = test system: P. aeruginosa; assay: P. aeruginosa growth kinetics (spectrophotometric analysis at 600 nm); type: cell-based, Pseudomonas aeruginosa; conditions: for bacterial growth (PA14): FIG. 23B
Text: P. aeruginosa strains include wild-type (PA14, see Rahme et al., Science 268:1899-1902, 1995); a PA14 mvfR mutant (Cao et al., Proc. Natl. Acad. Sci. USA 98:14613-14618, 2001); a pqsE deletion mutant, generated via pEX18Ap allelic replacement by using sucrose selection (Hoang et al., Gene 212:77-86, 1998), resulting in a 570-bp nonpolar deletion covering 65% of the sequence (Déziel et al. PNAS); and the pqsA (U479) TnphoA mutant obtained from the PA14 Transposon Insertion Mutant Database. Bacteria were grown in LB broth or on 1.5% Bacto-agar (Difco) LB plates. Freshly plated cells served as inoculum.
P. aeruginosa was grown in the presence of 2 mM of 2′-aminoacetophenone (2AA), 3′-aminoacetophenone (3AA), 4′-aminoacetophenone (4AA), or 2′-nitroacetophenone (2NA), or in the absence of any of these compounds (control). Bacterial growth was followed over 26 hours by spectrophotometric analysis at 600 nm.
Bacterial growth was also followed over 35 hours by spectrophotometric analysis at 600 nm.

[3] = biological target: T1, PqsA (Pseudomonas aeruginosa, UniProt Q9I4X3); assay: Anthranilic acid accumulation and AA competition in PA14 cultures; type: cell-based; conditions: for accumulation of anthranilic acid: PA14 culture with inhibitor vs control (FIG. 31); for effect of increasing concentrations of AA on inhibition of HAQ production: culture containing 1.5 mM inhibitor (FIG. 32)
T1 construct: endogenous in cells; host or cells: P. aeruginosa PA14 cultures
Text: In P. aeruginosa anthranilic acid is also produced by the enzymatic systems PhnAB or TrpEG. […] This accumulation could be due to inhibition of PqsA or of any enzyme downstream in the HAQ biosynthesis. […] This reversal could only be explained by a competitive inhibition of an enzyme acting on AA. Because pqsA is the only enzyme of the pqsA-E operon to present similarities with enzymes involved in the activation of aromatic acid group, like the one found in anthranilic acid, we conclude that these inhibitors act on PqsA in a competitive manner with its substrate AA.

[4] = test system: pyocyanin production; assay: Pyocyanin production; type: cell-based, Pseudomonas aeruginosa
[5] = test system: 4-hydroxy-2-alkylquinoline (HAQ) production; type: cell-based, Pseudomonas aeruginosa
[6] = physchem; conditions: saline or isotonic
[7] = Toxicity of IV 6-FABA in burned mice; type: in vivo
Description: Initial experiments were aimed at defining an appropriate mouse administration protocol for 6-FABA, with regard to concentration, time of administration following infection, and inhibition of virulence. […] Accordingly, burn and PA14 infected (BI) mice were subsequently administered a single injection of 20 mM 6-FABA at 6 or 12 hr post BI; and double injections at 6 and 24 hr BI.

[8] = test system: P. aeruginosa PA14; assay: PA14 systemic spread in BI mice (cfu in muscle and blood); type: in vivo
Description: Furthermore, 6-FABA, 6CABA, and 4CABA efficacy in limiting PA14 systemic spread was assessed by comparing burn mice infected with PA14 and then treated with the compounds at 6 hr BI with control untreated BI mice. For each experimental set of n=18, 6 mice were sacrificed at 24 hr, and bacteria numbers were determined in muscle tissue underlaying or adjacent to the […] site and in blood. The inoculation procedure used in the thermal injury model greatly limits the initial delivery of bacteria to blood and muscle, so bacteria in these tissues reflect post-infection systemic spread.
In an experiment to determine the whether 6-fluoro-2-aminobenzoic acid (6FABA) affects the systemic spread of P. aeruginosa cells in a mouse burn/infection model, the results of which are shown in FIGS. 28A and 28B, 15 mice were treated with 100 μL of a 20 mM solution of 6-FABA 6 hrs or 12 hours post-burn and infection, and the PA14 cfu/mg of tissue (i.e., in blood and in muscle adjacent to the burn and infection) was determined at 24 hours and 36 hours post-burn.

[9] = biological target: T2, MvfR (Pseudomonas aeruginosa, UniProt Q9I4X0); assay: MvfR binding to radiolabeled pqsA promoter DNA fragment (gel shift); conditions: 40 pM ligand, E. coli cell lysate containing MvfR (FIGS. 20A, 20B)
T2 construct: made in house; host or cells: E. coli (cell lysate, not purified)
Description: FIGS. 20A and 20B show binding of MvfR to the pqsA promoter. FIG. 20A is a gel showing that MvfR binds to the pqsA promoter in the absence of HHQ or PQS, but that binding is increased in the presence of HHQ or PQS. A ^32P-labeled 174-bp DNA fragment containing the pqsA promoter region was mixed with E. coli cell lysate containing MvfR minus ligand (lanes 2-3); plus 40 pM HHQ (lanes 4-5); or plus 40 pM PQS (lanes 6-7). Protein added per reaction: lane 1, 0 ng/μl; lanes 2, 4, and 6, 30 ng/μl; and lanes 3, 5, and 7, 60 ng/μl. HHQ and PQS were added at the final concentration of 40 pM. Reaction mixtures were electrophoresed on 5% non-denatured polyacrylamide gels. FIG. 20B is a graph showing the densitometry of shifted bands.
To determine if HHQ potentiates MvfR DNA-binding, a 174-bp radiolabeled pqsA promoter region DNA fragment containing the potential LysR-box sequence was mixed with E. coli cell lysate containing MvfR.

[10] = test system: pqsA-LacZ (MvfR-dependent pqs operon transcription); assay: pqsA-LacZ expression (β-galactosidase activity); type: cell-based, Pseudomonas aeruginosa; conditions: PA14 pqsH/pqsA double mutant, compound added at OD600 1.0 (FIG. 19)
Description: To assess the effect of this compound on bacteria, we analyzed the production of HAQs in the presence of 2AA using LC/MS. The bacteria were propagated in the presence of 3 mM 2AA, culture media was collected at different time points, and the HHQ, PQS and HQNO production was measured in the supernatant. […] Since 2AA addition to the P. aeruginosa culture inhibits the production of HHQ and PQS, we assessed the transcription from the pqs operon using a pqsA-LacZ fusion.
To further, understand the mechanism of inhibition of the pqs operon by 2AA, we carried out competition assays of PQS and HHQ with 2AA. The expression of pqsA-LacZ in pqsApqsH double mutants was assessed. Bacteria were grown to an OD600 of 1.0 and HHQ and PQS were added either alone or with 2AA. LacZ expression was assayed at different stages of the growth, using standard protocols.
To determine whether HHQ activates MvfR expression, we generated a PA14pqsH/pqsA double mutant that lacks all HAQ production, and assessed pqsA-lacZ activity in the absence and presence of HHQ and PQS.

[11] = 2 mM compound, followed over 26 hours at 600 nm (FIG. 4)

T1 sequence (Q9I4X3 whole entry): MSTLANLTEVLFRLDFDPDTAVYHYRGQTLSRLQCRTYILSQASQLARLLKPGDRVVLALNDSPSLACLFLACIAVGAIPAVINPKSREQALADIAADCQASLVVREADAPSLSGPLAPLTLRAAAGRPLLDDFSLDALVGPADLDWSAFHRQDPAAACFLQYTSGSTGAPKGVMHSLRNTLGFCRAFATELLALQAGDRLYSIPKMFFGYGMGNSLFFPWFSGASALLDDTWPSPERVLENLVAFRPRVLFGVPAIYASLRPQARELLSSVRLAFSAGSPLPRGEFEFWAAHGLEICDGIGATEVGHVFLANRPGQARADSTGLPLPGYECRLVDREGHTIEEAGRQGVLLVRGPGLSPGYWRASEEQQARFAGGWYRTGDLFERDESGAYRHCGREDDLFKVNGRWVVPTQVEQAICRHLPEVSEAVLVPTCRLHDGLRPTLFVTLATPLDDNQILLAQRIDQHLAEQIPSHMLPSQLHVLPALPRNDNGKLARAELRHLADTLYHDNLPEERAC
T2 sequence (Q9I4X0 whole entry, the tested form may be a part): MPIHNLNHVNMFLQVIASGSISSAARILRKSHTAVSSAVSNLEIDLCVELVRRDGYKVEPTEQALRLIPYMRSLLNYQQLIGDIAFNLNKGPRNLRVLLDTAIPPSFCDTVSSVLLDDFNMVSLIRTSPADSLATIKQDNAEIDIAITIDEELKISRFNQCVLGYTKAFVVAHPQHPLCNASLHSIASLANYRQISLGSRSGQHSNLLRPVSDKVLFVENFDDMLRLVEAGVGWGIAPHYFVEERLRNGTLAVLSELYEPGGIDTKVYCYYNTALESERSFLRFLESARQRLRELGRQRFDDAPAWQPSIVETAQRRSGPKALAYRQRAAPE

CC(=O)c1cccc(O)c1N [2-amino-3 hydroxy acetophenone]
protection (survival curves) ([1]; 10 mM solutions IV 4 days pre-BI (FIGS. 11A, 11B)): decreased protective efficacy versus 2AA

CC(=O)c1ccccc1[N+](=O)[O-] [2NA, 2′-nitroacetophenone]
Bacterial growth [2, 11]: only slightly retarded | average survival after 5 days [1]: 50%

CC(=O)c1cccc(N)c1 [3AA, 3′-aminoacetophenone]
Bacterial growth [2, 11]: only slightly retarded | average survival after 5 days [1]: 50%

Nc1cc(Cl)ccc1C(=O)O [4-CABA, 4-chloro-2-aminobenzoic acid]
accumulation of anthranilic acid [3]: transient accumulation | Bacterial growth ([2]; 1.5 mM compound, followed over 35 hours at 600 nm (FIG. 6)): only slightly retarded | bacterial growth (PA14) [2]: without affecting bacterial growth | pyocyanin production [4]: without abrogating pyocyanin production | final mice survival rate at 7 days post burn and infection [1]: ~50% | HAQ production / HAQs synthesis [5]: completely halted | inhibition of 4-hydroxy-2-alkylquinoline (HAQ) production [5]: potent inhibitors | production of the principal members of the three main HAQ families (HHQ, HQNO, PQS) [5]: dramatically decreased

Nc1cc(F)ccc1C(=O)O [4-FABA, 4-fluoro-2-aminobenzoic acid]
inhibition of 4-hydroxy-2-alkylquinoline (HAQ) production [5]: potent inhibitors

CC(=O)c1ccc(N)cc1 [4AA, 4′-aminoacetophenone]
Bacterial growth [2, 11]: only slightly retarded | average survival after 5 days [1]: 50%

Nc1ccc(F)cc1C(=O)O [5-FABA, 5-fluoro-2-aminobenzoic acid]
HAQ production / HAQs synthesis [5]: inhibited HAQ production | inhibition of 4-hydroxy-2-alkylquinoline (HAQ) production [5]: potent inhibitors

Nc1cccc(Cl)c1C(=O)O [6-CABA, 6-chloro-2-aminobenzoic acid]
accumulation of anthranilic acid [3]: transient accumulation | effect of increasing concentrations of AA on inhibition of HAQ production [3]: reversed the inhibition | bacterial growth (PA14) [2]: without affecting bacterial growth; also recorded: does not inhibit PA14 growth | pyocyanin production [4]: without abrogating pyocyanin production | final mice survival rate at 7 days post burn and infection [1]: ~40% | HAQ production / HAQs synthesis [5]: inhibited HAQ production; also recorded: completely halted | inhibition of 4-hydroxy-2-alkylquinoline (HAQ) production [5]: potent inhibitors | production of the principal members of the three main HAQ families (HHQ, HQNO, PQS) [5]: dramatically decreased

Nc1cccc(F)c1C(=O)O [6-FABA, 6-fluoro-2-aminobenzoic acid]
solubility [6]: 20 mM (≈ 3100 µg/mL) | toxicity (deaths) ([7]; second IV injection of 20 mM at 12 or 18 hr): a significant number of mice die | mortality ([7]; second IV injection of 20 mM at 24 hr): 10% | toxicity ([7]; single IV injection 100 μl 20 mM, 6 hrs post-burn): non-toxic | systemic dissemination of P. aeruginosa (cfu/mg in muscle adjacent to burn) ([8]; 100 μL of 20 mM 6-FABA post-burn and infection (FIG. 28A)): limits significantly the systemic dissemination | bacteria in blood ([8]; 100 μL of 20 mM 6-FABA, blood at 24 hrs (FIG. 28B)): no bacteria are detected | accumulation of anthranilic acid [3]: transient accumulation | effect of increasing concentrations of AA on inhibition of HAQ production [3]: reversed the inhibition | bacterial growth (PA14) [2]: without affecting bacterial growth | pyocyanin production [4]: without abrogating pyocyanin production | time course of mortality ([1]; single IV injection 20 mM at 6 hr BI (FIG. 26)): delayed mortality | survival ([1]; single IV injection 20 mM at 6 hr BI, control 10% (FIG. 26)): 40% | survival ([1]; single IV injection 20 mM at 12 hr BI (FIG. 26)): up to 60% | final mice survival rate at 7 days post burn and infection [1]: ~35% | HAQ production / HAQs synthesis [5]: inhibited HAQ production; also recorded: completely halted | inhibition of 4-hydroxy-2-alkylquinoline (HAQ) production [5]: potent inhibitors; also recorded: potently inhibit | production of the principal members of the three main HAQ families (HHQ, HQNO, PQS) [5]: dramatically decreased; also recorded: strongly inhibited

CCCCCCCc1cc(O)c2ccccc2n1 [HHQ, 4-hydroxy-2-heptylquinoline, reference compound]
MvfR-pqsA promoter binding [9]: potentiate MvfR-pqsA promoter binding, with weaker activity seen with HHQ versus PQS | MvfR-dependent pqsA-lacZ activity [10]: induce MvfR-dependent pqsA-lacZ activity

COC(=O)c1ccccc1N [MA, methyl anthranilate, reference compound]
PA14 growth ([2]; methylanthranilate (FIG. 25B)): inhibits PA14 growth | PQS production [5]: prevents PQS production | levels of HAQs [5]: reduces the levels of several HAQs | production of N-oxides [5]: production of N-oxides at very high concentrations

CCCCCCCc1nc2ccccc2c(O)c1O [PQS, 3,4-dihydroxy-2-heptylquinoline, reference compound]
MvfR-pqsA promoter binding [9]: potentiate MvfR-pqsA promoter binding | MvfR-dependent pqsA-lacZ activity [10]: induce MvfR-dependent pqsA-lacZ activity

From patent publication US20130209515A1, “ANTI-INFECTIVE AND IMMUNOMODULATORY COMPOUNDS” (priority 2005, published 2013)
